Experimental data from patent US20080280945A1, “Crystalline forms of an HIV integrase inhibitor” (priority 2007, published 2008).
Values after ≈ are worked out from the molar mass of the structure shown.

Assays:
[1] = solubility in water at 25° C. (ReactArray ST system, HPLC); format: physicochemical; details: for Solubility: equilibrated 24 h, average of last four hours, mean ± SE of 4 samples (amorphous: 1 sample); for Comment (form of excess solid): excess solid after solubility experiment
Procedure: The solubilities of crystalline ethanolate, crystalline hydrate and crystalline anhydrate were determined in water at 25° C. using a ReactArray ST™ system (Anachem, UK). Approximately 50 mg of material was transferred to a sample tube and 1.5 mL of water was added to it. The tubes were mounted on a temperature control block and the slurry was stirred at 400 rpm using a magnetic stir bar. The solution was equilibrated for 24 hours following which the concentration was monitored every hour for 6 hours.
HPLC conditions: column=C18 Bridge column (Waters Corporation), 4.6 mm×50 mm and 2.5 μm particle size; temperature=25° C., UV detection at λ=220 nm; flow rate=1 mL/minute; injection volume=5 μL; mobile phase=initial conditions at 20% acetonitrile and 80% 0.1% phosphate buffer with a gradient from 20% acetonitrile to 95% acetonitrile in 3 minutes, hold at 95% acetonitrile for 3 minutes, then from 95% to 20% acetonitrile in 0.1 minute (run time: 7 minutes), followed by 1 minute conditioning.

[2] = thermal stability studies, 2 weeks storage, HPLC and XRPD; format: physicochemical; details: for Loss at 40° C., 75% RH / Loss at 60° C., ambient RH: 2 weeks storage, HPLC, NLQ = no loss greater than the limit of quantitation
Procedure: One set of samples of the amorphous, crystalline ethanolate, crystalline hydrate, and crystalline anhydrate forms of Isomer M were stored in a GMP stability chamber at 40° C. and 75% relative humidity (RH) and another set of analogous samples was stored at 60° C. and ambient RH in a Vacuum Oven, NAPCO (National Appliance Company) Model 5831. The samples were analyzed by XRPD and by HPLC before and after 2 weeks storage. HPLC conditions: column=Symmetry Shield RP18 15 cm×4.6 mm (Waters Corporation) with 3.5 μm particle size; temperature=25° C., UV detection at λ=220 nm; flow rate=1 mL/minute; injection volume=10 μL; mobile phase=initial conditions at 20% acetonitrile and 80% 0.1% phosphate buffer with a gradient from 20% acetonitrile to 35% acetonitrile in 8 minutes, hold at 35% acetonitrile for 5 minutes, from 35% to 60% acetonitrile in 13 minutes, from 60% to 90% acetonitrile in 10 minutes (run time: 36 minutes, equilibration time: 10 minutes).

[3] = tested on: acute HIV infection of T-lymphoid cells; assay: inhibition of acute HIV infection of T-lymphoid cells (Vacca et al.); format: cell-based; details: n=6
[4] = after 2 weeks at 60° C., ambient RH

| Solubility [1] | Comment (form of excess solid) [1] | Loss at 40° C., 75% RH [2] | Loss at 60° C., ambient RH [2] | XRPD (form change) ([2]; after 2 weeks at 40° C., 75% RH) | XRPD (form change) [2, 4] | Structure (SMILES) | IC95 ([3]; in the presence of 10% FBS) | IC95 ([3]; in the presence of 50% human serum) |
| --- | --- | --- | --- | --- | --- | --- | --- | --- |
| 0.83 mg/mL (≈ 1740 µM) | Excess solid is amorphous | 8.9 A % | – | – | – | CN1C[C@H](O)C(C)(C)Cn2c(c3c(c(O)c2=O)C(=O)N(Cc2ccc(F)c(Cl)c2)CC3)C1=O [Amorphous, M-(4R)-11-(3-chloro-4-fluorobenzyl)-4,9-dihydroxy-2,5,5-trimethyl-3,4,5,6,12,13-hexahydro-2H[1,4]diazocino[2,1-a]-2,6-naphthyridine-1,8,10(11H)-trione] | – | – |
| 0.124 (±0.010) mg/mL | Excess solid is anhydrate | NLQ | NLQ | no detectable change | no detectable change | CN1C[C@H](O)C(C)(C)Cn2c(c3c(c(O)c2=O)C(=O)N(Cc2ccc(F)c(Cl)c2)CC3)C1=O [Crystalline anhydrate, M-(4R)-11-(3-chloro-4-fluorobenzyl)-4,9-dihydroxy-2,5,5-trimethyl-3,4,5,6,12,13-hexahydro-2H[1,4]diazocino[2,1-a]-2,6-naphthyridine-1,8,10(11H)-trione anhydrate] | – | – |
| 0.071 (±0.002) mg/mL | Excess solid converts to hydrate | 0.3 A % | 11.5 A % | – | no detectable change | CN1C[C@H](O)C(C)(C)Cn2c(c3c(c(O)c2=O)C(=O)N(Cc2ccc(F)c(Cl)c2)CC3)C1=O [Crystalline ethanolate, M-(4R)-11-(3-chloro-4-fluorobenzyl)-4,9-dihydroxy-2,5,5-trimethyl-3,4,5,6,12,13-hexahydro-2H[1,4]diazocino[2,1-a]-2,6-naphthyridine-1,8,10(11H)-trione ethanolate] | – | – |
| – | – | – | – | – | – | CN1C[C@H](O)C(C)(C)Cn2c(c3c(c(O)c2=O)C(=O)N(Cc2ccc(F)c(Cl)c2)CC3)C1=O [Isomer M, M-(4R)-11-(3-chloro-4-fluorobenzyl)-4,9-dihydroxy-2,5,5-trimethyl-3,4,5,6,12,13-hexahydro-2H[1,4]diazocino[2,1-a]-2,6-naphthyridine-1,8,10(11H)-trione] | 15.6±0 1M | 51.7±16 |
